Target: T1, PSMA-expressing LNCaP cells (Homo sapiens, UniProt Q04609)
T1 construct: PSMA-expressing LNCaP cells; endogenous in cells; host or cells: LNCaP
Experiment: Binding competition assay against 3H-PSMA-617 on LNCaP cells
Conditions: for remaining activity at 0.01 µM / remaining activity at 0.1 µM: LNCaP cells, 10 nM 3H-PSMA-617, 2 h at 37° C., triplicates; for remaining activity at 0.01 µM: competing non-radiolabeled compound 10 nM; for remaining activity at 0.1 µM: competing non-radiolabeled compound 100 nM; for competition against 3H-PSMA-617 on PSMA-expressing LNCaP cells (in words): comparison between examples
Protocol: Cells were incubated at 37° C. and 5% CO2 over night. […] After addition of the compounds in growth media the cells were swiveled slightly on a shaker mixing for 10 min followed by incubation for 2 h at 37° C., 5% C02. Following the incubation time the supernatant was removed by pipetting and cells were washed twice with ice cold PBS (total of 800 μl). Cells were lysed in 500 μl of 0.3M NaOH (PanReac AppliChem ITW Reagents) by vigorous shaking for 15 min and the cell lysated pipetted into scintillator tubes (S207-[…]® Scintillation Vials 6.5 ml #S207, Simport). In the following the wells were washed with 500 μl PBS and the washing PBS added to the corresponding samples in the sincitallator tubes. To each sample in the scintillator tubes 4 mL of Ultima Gold liquid scintillation cocktail (Sigma-Aldrich #L8286) was added and the samples let stand for at least 30 min. Thereafter radioactivity was counted in a Tri-Carb Liquid Scinzillation Analyzer (Perkin Elmer).

T1 sequence (Q04609 whole entry): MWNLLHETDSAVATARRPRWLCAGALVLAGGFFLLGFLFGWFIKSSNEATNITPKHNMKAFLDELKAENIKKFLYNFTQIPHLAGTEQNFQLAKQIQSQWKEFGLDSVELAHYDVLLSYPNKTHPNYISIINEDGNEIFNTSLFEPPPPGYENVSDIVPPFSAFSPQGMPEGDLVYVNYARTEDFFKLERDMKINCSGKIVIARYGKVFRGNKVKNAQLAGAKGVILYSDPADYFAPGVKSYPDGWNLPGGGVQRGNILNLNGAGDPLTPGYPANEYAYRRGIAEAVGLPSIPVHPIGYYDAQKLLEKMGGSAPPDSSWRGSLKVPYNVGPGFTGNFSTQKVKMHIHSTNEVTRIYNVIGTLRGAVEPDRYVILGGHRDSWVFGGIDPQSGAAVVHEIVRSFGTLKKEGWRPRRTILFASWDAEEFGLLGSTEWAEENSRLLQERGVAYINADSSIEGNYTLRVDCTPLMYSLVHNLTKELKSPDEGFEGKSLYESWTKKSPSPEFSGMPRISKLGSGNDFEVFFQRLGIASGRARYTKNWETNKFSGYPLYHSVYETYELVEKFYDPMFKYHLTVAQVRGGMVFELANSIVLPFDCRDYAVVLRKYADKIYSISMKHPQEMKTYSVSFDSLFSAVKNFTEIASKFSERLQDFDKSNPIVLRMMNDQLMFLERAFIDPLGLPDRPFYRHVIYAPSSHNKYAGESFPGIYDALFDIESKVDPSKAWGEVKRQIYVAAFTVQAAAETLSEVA

SMILES | remaining activity at 0.01 µM [%] | remaining activity at 0.1 µM [%] | competition against 3H-PSMA-617 on PSMA-expressing LNCaP cells (in words)
Cc1cc(C(=O)NCCN(CCCN(CCNC(=O)c2cc(C)n(CC(=O)O)c(=O)c2O)CCNC(=O)c2cc(C)n(CC(=O)NCc3ccc(C(=O)N[C@@H](Cc4ccc5ccccc5n4)C(=O)NCCCC[C@H](NC(=O)N[C@@H](CCC(=O)O)C(=O)O)C(=O)O)nc3)c(=O)c2O)CCNC(=O)c2cc(C)n(CC(=O)NCc3ccc(C(=O)NC(Cc4ccc5ccccc5n4)C(=O)NCCCC[C@H](NC(=O)N[C@@H](CCC(=O)O)C(=O)O)C(=O)O)nc3)c(=O)c2O)c(O)c(=O)n1CC(=O)O (stereo partly drawn) [34-C dimer, (3S,10S,14S,3'S,10'S,14'S)-1,1′-(propane-1,3-diylbis{[(2-{[1-(carboxymethyl)-3-hydroxy-6-methyl-2-oxo-1,2-dihydropyridine-4-carbonyl]amino}ethyl)azanediyl]ethane-2,1-diylcarbamoyl(3-hydroxy-6-methyl-2-oxopyridine-4,1(2H)-diyl)(1-oxoethane-2,1-diyl)azanediylmethylenepyridine-5,2-diyl})bis{1,4,12-trioxo-3-[(quinolin-2-yl)methyl]-2,5,11,13-tetraazahexadecane-10,14,16-tricarboxylic acid}] | 42 | 7 | –
NC[C@H]1CC[C@H](C(=O)N[C@@H](CCCCNC(=O)c2cccnc2)C(=O)NCCCC[C@H](NC(=O)N[C@@H](CCC(=O)O)C(=O)O)C(=O)O)CC1 [Example 9-A, N^6—{N^2-[(1r,4S)-4-(aminomethyl)cyclohexane-1-carbonyl]-N^6-(pyridine-3-carbonyl)-L-lysyl}-N^2-{[(1S)-1,3-dicarboxypropyl]carbamoyl}-L-lysine] | 147 | 114 | –
NC[C@H]1CC[C@H](C(=O)N[C@@H](Cc2cccc(F)c2)C(=O)NCCCC[C@H](NC(=O)N[C@@H](CCC(=O)O)C(=O)O)C(=O)O)CC1 [Example 10-A, N^6—{N-[(1r,4S)-4-(aminomethyl)cyclohexane-1-carbonyl]-3-fluoro-L-phenylalanyl}-N^2-{[(1S)-1,3-dicarboxypropyl]carbamoyl}-L-lysine] | 91 | 60 | –
NC[C@H]1CC[C@H](C(=O)N[C@@H](CCCCNC(N)=O)C(=O)NCCCC[C@H](NC(=O)N[C@@H](CCC(=O)O)C(=O)O)C(=O)O)CC1 [Example 5-A, N^6—{N^2-[(1r,4S)-4-(aminomethyl)cyclohexane-1-carbonyl]-N^6-carbamoyl-L-lysyl}-N^2-{[(1S)-1,3-dicarboxypropyl]carbamoyl}-L-lysine] | 109 | 112 | –
O=C(O)CC[C@H](NC(=O)N[C@@H](CCCCNC(=O)[C@H](Cc1ccc2ccccc2c1)NC(=O)Cn1ccc(-c2ccc(NC(=O)CN3CCN(CC(=O)O)CCN(CC(=O)O)CCN(CC(=O)O)CC3)cc2)n1)C(=O)O)C(=O)O [Example 28-B, (4S,11S,15S)-4-[(naphthalen-2-yl)methyl]-2,5,13-trioxo-1-[3-(4-{2-[4,7,10-tris(carboxymethyl)-1,4,7,10-tetraazacyclododecan-1-yl]acetamido}phenyl)-1H-pyrazol-1-yl]-3,6,12,14-tetraazaheptadecane-11,15,17-tricarboxylic acid] | 33 | 90 | –
CC(=O)NCCCC[C@H](NC(=O)[C@H]1CC[C@H](CN)CC1)C(=O)NCCCC[C@H](NC(=O)N[C@@H](CCC(=O)O)C(=O)O)C(=O)O [Example 11-A, N^6—{N^6-acetyl-N^2-[(1r,4S)-4-(aminomethyl)cyclohexane-1-carbonyl]-L-lysyl}-N^2-{[(1S)-1,3-dicarboxypropyl]carbamoyl}-L-lysine] | 117 | 146 | –
Cc1ccc(C[C@H](NC(=O)[C@H]2CC[C@H](CN)CC2)C(=O)NCCCC[C@H](NC(=O)N[C@@H](CCC(=O)O)C(=O)O)C(=O)O)cc1 [Example 13-A, N^6—{N-[(1r,4S)-4-(aminomethyl)cyclohexane-1-carbonyl]-4-methyl-L-phenylalanyl}-N^2-{[(1S)-1,3-dicarboxypropyl]carbamoyl}-L-lysine] | 108 | 124 | –

The next lines start with results.

remaining activity at 0.01 µM [%] | remaining activity at 0.1 µM [%] | SMILES | competition against 3H-PSMA-617 on PSMA-expressing LNCaP cells (in words)
86 | 78 | NC[C@H]1CC[C@H](C(=O)N[C@H](Cc2ccc3ccncc3c2)C(=O)NCCCC[C@H](NC(=O)N[C@@H](CCC(=O)O)C(=O)O)C(=O)O)CC1 [Example 42-A, (3R,10S,14S)-1-[(1r,4S)-4-(aminomethyl)cyclohexyl]-3-[(isoquinolin-7-yl)methyl]-1,4,12-trioxo-2,5,11,13-tetraazahexadecane-10,14,16-tricarboxylic acid] | –
93 | 87 | NC[C@H]1CC[C@H](C(=O)N[C@H](Cc2ccc3cccnc3c2)C(=O)NCCCC[C@H](NC(=O)N[C@@H](CCC(=O)O)C(=O)O)C(=O)O)CC1 [Example 45-A, (3R,10S,14S)-1-[(1r,4S)-4-(aminomethyl)cyclohexyl]-1,4,12-trioxo-3-[(quinolin-7-yl)methyl]-2,5,11,13-tetraazahexadecane-10,14,16-tricarboxylic acid] | –
61 | 78 | NC[C@H]1CC[C@H](C(=O)N[C@@H](Cc2ccc(Br)cn2)C(=O)NCCCC[C@H](NC(=O)N[C@@H](CCC(=O)O)C(=O)O)C(=O)O)CC1 [Example 31-A, N^6—{N-[(1r,4S)-4-(aminomethyl)cyclohexane-1-carbonyl]-3-(5-bromopyridin-2-yl)-L-alanyl}-N^2-{[(1S)-1,3-dicarboxypropyl]carbamoyl}-L-lysine] | –
33 | 6 | NCc1ccc(C(=O)N[C@@H](Cc2ccc3ccccc3c2)C(=O)NCCCC[C@H](NC(=O)N[C@@H](CCC(=O)O)C(=O)O)C(=O)O)cn1 [Example 26-A, (3S,10S,14S)-1-[6-(aminomethyl)pyridin-3-yl]-3-[(naphthalen-2-yl)methyl]-1,4,12-trioxo-2,5,11,13-tetraazahexadecane-10,14,16-tricarboxylic acid] | improved competition in comparison to the cyclohexyl examples 1-A and 1-B
50 | 9 | NCc1ccc(C(=O)N[C@@H](Cc2ccc3ccccc3n2)C(=O)NCCCC[C@H](NC(=O)N[C@@H](CCC(=O)O)C(=O)O)C(=O)O)nc1 [Example 34-A, N^6—{N-[5-(aminomethyl)pyridine-2-carbonyl]-3-(quinolin-2-yl)-L-alanyl}-N^2-{[(1S)-1,3-dicarboxypropyl]carbamoyl}-L-lysine] | improved competition
140 | 106 | NC[C@H]1CC[C@H](C(=O)N[C@H](Cc2ccc3c(c2)CCCO3)C(=O)NCCCC[C@H](NC(=O)N[C@@H](CCC(=O)O)C(=O)O)C(=O)O)CC1 [Example 38-A, N^6—{N-[(1r,4S)-4-(aminomethyl)cyclohexane-1-carbonyl]-3-(3,4-dihydro-2H-1-benzopyran-6-yl)-D-alanyl}-N^2-{[(1S)-1,3-dicarboxypropyl]carbamoyl}-L-lysine] | –
82 | 61 | NC[C@H]1CC[C@H](C(=O)N[C@H](Cc2csc3ccc(Cl)cc23)C(=O)NCCCC[C@H](NC(=O)N[C@@H](CCC(=O)O)C(=O)O)C(=O)O)CC1 [Example 41-A, N^6—{N-[(1r,4S)-4-(aminomethyl)cyclohexane-1-carbonyl]-3-(5-chloro-1-benzothiophen-3-yl)-D-alanyl}-N^2-{[(1S)-1,3-dicarboxypropyl]carbamoyl}-L-lysine] | –

Reference: patent US20230072421A1, “TARGETED RADIOPHARMACEUTICALS FOR THE DIAGNOSIS AND TREATMENT OF PROSTATE CANCER” (Bayer AS, priority 2019, published 2023)
